The results in this text go back to patent US9403827B2, “Substituted purinone compounds” (NOVARTIS AG, priority 2013, dated 2016).

Molecules are shown by their SMILES.

Holding throughout (assay type): binding
The target in assay [1] is human MDM4 protein (amino acids 2-185) (Homo sapiens (Human), UniProt O15151). The assay is described as follows: TR-FRET p53-MDM4 Assay 1. The settings on record: 2.5 nM MDM4-biotinylated, 10 nM Cy5-p53 peptide. The method, then: (§1) Time Resolved Fluorescence Energy Transfer (TR-FRET) Assay
(§2) The inhibition of p53-MDM2 and p53-MDM4 interactions is measured by time resolved fluorescence energy transfer (TR-FRET). Fluorescence energy transfer (or Foerster resonance energy transfer) describes an energy transfer between donor and acceptor fluorescent molecules. For this assay, human MDM2 protein (amino acids 2-188) and human MDM4 protein (amino acids 2-185), tagged with a C-terminal biotin moiety, are used in combination with a Europium labeled streptavidin (Perkin Elmer, Inc., Waltham, Mass., USA) serving as the donor fluorophore. The p53 derived, Cy5 labeled peptide Cy5-TFSDLWKLL (p53 aa18-26) is the energy acceptor. Upon excitation of the donor molecule at 340 nm, binding interaction between MDM2 or MDM4 and the p53 peptide induces energy transfer and enhanced response at the acceptor emission wavelength at 665 nm.
(§3) Disruption of the formation of the p53-MDM2 or p53-MDM4 complex due to an inhibitor molecule binding to the p53 binding site of MDM2 or MDM4 results in increased donor emission at 620 nm. The ratiometric FRET assay readout is calculated from the raw data of the two distinct fluorescence signals measured in time resolved mode (fluorescence 665 nm/fluorescence 620 nm×1000).
(§4) The test is performed in white 384-well plates (Greiner Bio-One, reference 781207) in a total volume of 60 μL by adding 1 μL of compounds tested at different concentrations diluted in 100% DMSO (1.7% final DMSO concentration) in reaction buffer (PBS, 125 mM NaCl, 0.001% Novexin (consists of carbohydrate polymers), designed to increase the solubility and stability of proteins; Expedeon Ltd., Cambridgeshire, United Kingdom), 0.01% Gelatin, 0.01% 0.2%, Pluronic F-127 (block copolymer from ethylenoxide and propyleneoxide), 1 mM DTT). After addition of 1.25 nM MDM2-biotinylated or 2.5 nM MDM4-biotinylated (internal preparations, both MDM2 and MDM4 are biotinylated at the C-terminal of the peptide construct), and 0.625 nM Europium labeled streptavidin (Perkin Elmer), the solution is pre-incubated for 15 minutes at room temperature, then 10 nM Cy5-p53 peptide (internal preparation, the Cy5 dye is directly bound to the N-terminal part of p53 peptide construct) is added before an incubation at room temperature for 15 minutes prior to reading the plate. For measurement of samples, a Victor II microplate reader (Perkin Elmer) is used with the following settings: Excitation 340 nm, Emission Donor 620 nm and Emission Acceptor 665 nm. IC50 values are calculated by curve fitting using XLfit. If not specified, reagents are purchased from Sigma-Aldrich Chemie GmBH, Buchs, Switzerland.
(§5) This assay was used to evaluate compounds displaying inhibition of p53-MDM2 interaction and p53-MDM4 interaction at IC50s of 0.005 to 50 μM (p53-MDM2 Assay 1 and p53-MDM4 Assay 1, respectively). For selected compounds displaying IC50s between […] on MDM2, a slightly modified assay is used with the following adaptations: 0.1 nM MDM2, 0.1 nM Europium labeled streptavidin and Tecan genios Pro is used as a microplate reader for the fluorescence measurements (p53-MDM2 Assay 2).

Assay [2] has as its target T1, human MDM2 protein (amino acids 2-188) (Homo sapiens (Human), UniProt Q00987). The assay is described as follows: TR-FRET p53-MDM2 Assay 1. The settings on record: 1.25 nM MDM2-biotinylated, 10 nM Cy5-p53 peptide. Here is the method: as §1, §2, §3, §4, §5
The target of assay [3] is T1, human MDM2 protein (amino acids 2-188). The assay is described as follows: TR-FRET p53-MDM2 Assay 2 (modified: 0.1 nM MDM2). As to conditions: 0.1 nM MDM2, 0.1 nM Europium labeled streptavidin, Tecan genios Pro reader. Here is the method: as §1, §2, §3, §4, §5

T1 sequence (Q00987 2-188): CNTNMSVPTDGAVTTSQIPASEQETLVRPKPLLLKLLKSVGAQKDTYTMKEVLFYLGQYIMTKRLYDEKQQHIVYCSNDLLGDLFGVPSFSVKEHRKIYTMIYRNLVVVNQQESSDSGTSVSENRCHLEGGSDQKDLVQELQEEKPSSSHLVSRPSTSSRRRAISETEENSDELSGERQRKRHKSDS
Chain of human MDM4 protein (amino acids 2-185) (O15151 2-185): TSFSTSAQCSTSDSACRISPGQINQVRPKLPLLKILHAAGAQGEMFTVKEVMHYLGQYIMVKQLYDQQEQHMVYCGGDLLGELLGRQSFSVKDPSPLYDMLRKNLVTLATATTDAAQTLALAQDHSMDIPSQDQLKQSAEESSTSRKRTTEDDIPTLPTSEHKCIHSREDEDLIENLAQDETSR

On to `COc1ccccc1-c1nc2c(n1C(C)C)C(c1ccc(Cl)cc1C)N(c1cc(Cl)ccc1C)C(=O)N2` (centres unmarked) [Example 3, 6-(4-Chloro-2-methylphenyl)-1-(5-chloro-2-methylphenyl)-7-isopropyl-8-(2-methoxyphenyl)-6,7-dihydro-1H-purin-2(3H)-one], for which the IC50 in assay [1] turned out to be 1.45 µM; in assay [2] it was 0.0018 µM.

Turning to `CC(C)n1c(Br)nc2c1C(c1ccc(Cl)cc1)N(c1cccc(Cl)c1F)C(=O)N2` (centres unmarked) [Example 5, 8-Bromo-1-(3-chloro-2-fluorophenyl)-6-(4-chlorophenyl)-7-isopropyl-6,7-dihydro-1H-purin-2(3H)-one], the IC50 in assay [2] stood at 0.12 µM.

For the compound `COc1ncc(-c2nc3c(n2C(C)C)C(c2ccc(Cl)cc2)N(c2cc(Cl)cn(C)c2=O)C(=O)N3)c(OC)n1` (centres unmarked) [Example 18, 1-(5-Chloro-1-methyl-2-oxo-1,2-dihydropyridin-3-yl)-6-(4-chlorophenyl)-8-(2,4-dimethoxypyrimidin-5-yl)-7-isopropyl-6,7-dihydro-1H-purin-2(3H)-one], the IC50 in assay [3] amounted to 2.91 nM.

Turning to `COc1ncc(-c2nc3c(n2C(C)C)C(c2ccc(Cl)c(F)c2)N(c2cc(Cl)c(=O)n(C)c2)C(=O)N3)c(OC)n1` (centres unmarked) [Example 19, 1-(5-Chloro-1-methyl-6-oxo-1,6-dihydropyridin-3-yl)-6-(4-chloro-3-fluorophenyl)-8-(2,4-dimethoxypyrimidin-5-yl)-7-isopropyl-6,7-dihydro-1H-purin-2(3H)-one], the IC50 in assay [3] came out at 0.93 nM.

For `COc1nc(N(C)C)ncc1-c1nc2c(n1C(C)C)C(c1ccc(Cl)c(F)c1)N(c1cc(Cl)c[nH]c1=O)C(=O)N2` (centres unmarked) [Example 20, 1-(5-Chloro-2-oxo-1,2-dihydropyridin-3-yl)-6-(4-chloro-3-fluorophenyl)-8-(2-(dimethylamino)-4-methoxypyrimidin-5-yl)-7-isopropyl-6,7-dihydro-1H-purin-2(3H)-one], the IC50 in assay [3] was determined as 0.354 nM.

Consider `COc1nc(N)ncc1-c1nc2c(n1C(C)C)C(c1ccc(Cl)cc1)N(c1cc(Cl)cn(C)c1=O)C(=O)N2` (centres unmarked) [Example 21, 8-(2-Amino-4-methoxypyrimidin-5-yl)-1-(5-chloro-1-methyl-2-oxo-1,2-dihydropyridin-3-yl)-6-(4-chlorophenyl)-7-isopropyl-6,7-dihydro-1H-purin-2(3H)-one], for which the IC50 in assay [3] is 4.3 nM.

With `COc1nc(N(C)C)ncc1-c1nc2c(n1C(C)C)C(c1ccc(Cl)cc1)N(c1cc(Cl)cn(C)c1=O)C(=O)N2` (centres unmarked) [Example 22, 1-(5-Chloro-1-methyl-2-oxo-1,2-dihydropyridin-3-yl)-6-(4-chlorophenyl)-8-(2-(dimethylamino)-4-methoxypyrimidin-5-yl)-7-isopropyl-6,7-dihydro-1H-purin-2(3H)-one], the half-inhibitory concentration (IC50) in assay [3] was 0.587 nM.

As to `COc1nc(N(C)C)ncc1-c1nc2c(n1C(C)C)C(c1ccc(Cl)c(F)c1)N(c1ccc(F)c(Cl)c1)C(=O)N2` (centres unmarked) [Example 23, 6-(4-Chloro-3-fluorophenyl)-1-(3-chloro-4-fluorophenyl)-8-(2-(dimethylamino)-4-methoxypyrimidin-5-yl)-7-isopropyl-6,7-dihydro-1H-purin-2(3H)-one], the IC50 in assay [3] stood at 0.385 nM.

With `COc1nc(N(C)C)ncc1-c1nc2c(n1C(C)C)C(c1ccc(Cl)c(F)c1)N(c1cc(Cl)cn(C)c1=O)C(=O)N2` (centres unmarked) [Example 24, 1-(5-Chloro-1-methyl-2-oxo-1,2-dihydropyridin-3-yl)-6-(4-chloro-3-fluorophenyl)-8-(2-(dimethylamino)-4-methoxypyrimidin-5-yl)-7-isopropyl-6,7-dihydro-1H-purin-2(3H)-one], the IC50 in assay [3] was found to be 0.748 nM.

As for `COc1ncc(-c2nc3c(n2C(C)C)C(c2ccc(Cl)c(F)c2)N(c2cc(Cl)c[nH]c2=O)C(=O)N3)c(OC)n1` (centres unmarked) [Example 25, 1-(5-Chloro-2-oxo-1,2-dihydropyridin-3-yl)-6-(4-chloro-3-fluorophenyl)-8-(2,4-dimethoxypyrimidin-5-yl)-7-isopropyl-6,7-dihydro-1H-purin-2(3H)-one], the IC50 in assay [3] was determined as 0.356 nM.
